Measured values: patent publication US4461891A, “2-β-D-Ribofuranosylthiazole-4-carboxamidine compounds” (Brigham Young University, priority 1983, dated 1984)

Key:
[1] = test system: purine nucleoside phosphorylase; experiment: purine nucleoside phosphorylase (PNP-4) test: formation of [14C]-hypoxanthine from [14C]-inosine; assay type: biochemical; conditions: human erythrocytes as the source of enzyme; [14C]-inosine substrate
From the text: In particular, the compound, in a standard protocol, patterned after that reported in Biomedicine, 33, 39-41(1980), has been shown typically to inhibit the formation of [^14 C]-hypoxanthine from [^14 C]-inosine using human erythrocytes as the source of enzyme. […] Since T-cells play a central role in immune response, use of the compounds of the invention is contemplated for the immunoregulation of autoimmune disease Such as rheumatoid arthritis, systemic lupus erythematosus, and inflammatory bowel disease. The present invention in another preferred aspect therefore relates to compositions containing at least one compound of the invention in treating disease such as autoimmune disease characterized by abnormal immune response in warm blooded animals. According to this aspect of the invention, the properties of 2-β-D-ribofuranosylthiazole-4-carboxamidines are utilized by administering to a warm blooded animal an effective amount of a pharmaceutical composition containing as the active ingredient at least about 0.1 percent by weight, based on the total weight of the composition of at least one such compound of the invention.

T-cells = experiment: T-cell test: selective cytotoxicity in the presence of 2'-deoxyguanosine; assay type: cell-based
CEM T-lymphoblasts = experiment: T-cell test with 2'-deoxyguanosine, CEM; assay type: cell-based; conditions: with 2'-deoxyguanosine (10 micromoles), read-out: ED50 (toxic for T-lymphoblasts)
HSB = experiment: T-cell test with 2'-deoxyguanosine, HSB; assay type: cell-based; conditions: with 2'-deoxyguanosine (10 micromoles), read-out: ED50 (toxic for T-lymphoblasts)
MOLT-4 = experiment: T-cell test with 2'-deoxyguanosine, MOLT-4; assay type: cell-based; conditions: with 2'-deoxyguanosine (10 micromoles), read-out: ED50 (toxic for T-lymphoblasts)

- concentration at which total inhibition was achieved [1]: less than 300 micromoles
SMILES: Cl.N=C(N)c1csc([C@@H]2O[C@H](CO)[C@@H](O)[C@H]2O)n1 [Example 1, 2-β-D-Ribofuranosylthiazole-4-Carboxamidine, hydrochloride]
- selective cytotoxicity for T-cells (T-cells): selectively cytotoxic for T-cells
- IC50 (CEM T-lymphoblasts): ~77 µM
- IC50 (HSB): ~7 µM
- IC50 (MOLT-4): ~27 µM
